Experimental data reported in patent publication US20150104868A1, “Methods of Maintaining and Improving Biological Cell Function and Activity” (GARGILL INCORPORATED, priority 2012, published 2015).
Entries after “also recorded” stand apart in the source; their conditions may differ. Where two headings read alike, the source gives them in different places.

Columns and labels:
[1] = system: Mouse intestine (entero-endocrine) STC-1 cells
Protocol: Appropriate blanks, positive controls, and standards were also included.
The lactate dehydrogenase (LDH) leakage from cells was analyzed in the supernatants as a marker for cytotoxic cell death.

[2] = system: HUVEC cells; assay: Oxidative damage: protein carbonyls in HUVEC; assay type: cell-based, human; settings: HG 30 mM glucose 24 h, with or without 5 mM ERT/MAN
Protocol: The prepared cells were seeded in 6 well plates and T75 flasks and grown until 80% confluence. The medium was removed, and the cells were washed with Hank's Balanced Salt Solution (HBSS). […] The vehicle solution is the solvent for the test compounds, in this case being the medium without supplements. […] The cells described above were also incubated for 24 hours with a 7 mM, normal glucose (NG) solution or in some instances, with a 15 mM, intermediary glucose (IG) solution. See, for example, FIG. 6. Subsequently, the cells were incubated for 24 hours. The same protocol was used for incubation with Nε-(carboxymethyl)lysine (CML, final concentration 1 micromolar) and 1,3-morpholino sidnonimine (SIN-1, final concentration 0.5 mM). […] Hyperglycemia is strongly associated with oxidative stress, an imbalance between the formation of reactive oxygen species and the present antioxidants. Excess reactive oxygen species react with critical cellular targets, viz. membrane lipids, proteins and (deoxy)ribonucleic acids. […] Accordingly, one of the targeted assays included studying a comparison of HG to HGERT conditions, where the oxidative damage was evaluated showing that the protein carbonyls decreased from 6.55 nM/mg protein with HG to 3.77 with […]=0.089). Protein carbonyls are end products of reactions between proteins and reactive oxygen species (ROS), formed during oxidative stress. […]

[3] = system: HUVEC cells; assay: HUVEC cell viability assay (trypan blue, percentage of dead cells); assay type: cell-based, human; settings: ERT/MAN 5 mM 1 h before, SIN-1 0.5 mM, CML 1 micromolar
Protocol: A HUVEC cell line (CRL-1730) was obtained from American Type Culture Collection (ATCC) of Manassas, Va. […] The prepared cells were maintained in collagen coated T75 flasks (Greiner Bio-one) at 37° C. in a 5% CO2 atmosphere. The prepared cells were subjected to various stressors. Stressors, for purposes of the examples, include conditions of stress caused by glucose directly or indirectly through the formation or elevation of other substances that cause stress. Diabetic stressors include high glucose (HG; 30 mM, 24 h), TNFα: pro-inflammatory agent, Nε carboxymethyllysine: advanced glycation end (AGE) product, and SIN-1: peroxynitrite generator. Prepared cells were also exposed to normal glucose (NG; 7 mM, 24 h) as a control. The prepared cells were seeded in 6 well plates and T75 flasks and grown until 80% confluence. The medium was removed, and the cells were washed with Hank's Balanced Salt Solution (HBSS). […] The vehicle solution is the solvent for the test compounds, in this case being the medium without supplements. […] The cells described above were also incubated for 24 hours with a 7 mM, normal glucose (NG) solution or in some instances, with a 15 mM, intermediary glucose (IG) solution. See, for example, FIG. 6. Subsequently, the cells were incubated for 24 hours. The same protocol was used for incubation with Nε-(carboxymethyl)lysine (CML, final concentration 1 micromolar) and 1,3-morpholino sidnonimine (SIN-1, final concentration 0.5 mM). […] In a cell viability assay, fresh, untreated HUVEC cells were grown in 6 well plates until 80% confluence. Subsequently, the incubation medium was removed and the cells were washed with HBSS and harvested with trypsin. All cell material, including the medium and the HBSS wash, was collected and centrifuged for 5 minutes at 500×g. […] The number of viable (white) and dead (blue) cells were counted in 25 squares, and the count was repeated an additional two times for each sample, for a total of three counts per sample. […] The percentage of dead cells was then calculated with the formula: (blue cells/(blue cells+white cells))*100.

SMILES: O=C(CO)[C@@H](O)[C@H](O)[C@H](O)CO[C@H]1O[C@H](CO)[C@@H](O)[C@H](O)[C@H]1O [6-O-α-D-glucopyranosyl-D-fructose]
- cell death (leakage of lactate dehydrogenase) [1]: cell death was higher

SMILES: OC[C@@H](O)[C@@H](O)[C@H](O)[C@H](O)CO [MAN, (2R,3R,4R,5R)-hexaan-1,2,3,4,5,6-hexol, reference compound]
- protein carbonyls [2]: did not reduce protein carbonyls

SMILES: [NH-]c1c[n+](N2CCOCC2)no1 [SIN-1, 3-morpholinosidnonimine]
- percentage of dead cells (Average) ([3]; HG 30 mM glucose 24 h, listed as SIN): 12.59%
- percentage of dead cells (Average) ([3]; NG 7 mM glucose 24 h): significant increase in the amount of dead cells; also recorded: increased the number of dead cells
- percentage of dead cells (Average) ([3]; NG 7 mM glucose 24 h, listed as SIN): 12.29%

SMILES: O=C(CO)[C@@H](O)[C@H](O)[C@H](O)CO [fructose]
- cell death (leakage of lactate dehydrogenase) ([1]; STC-1 cells, 10% w/v, 2 hours at 37° C.): cell death was higher

SMILES: OC[C@H]1O[C@@](CO)(O[C@H]2O[C@H](CO)[C@@H](O)[C@H](O)[C@H]2O)[C@@H](O)[C@@H]1O [sucrose]
- cell death (leakage of lactate dehydrogenase) [1]: cell death was higher
